Results from patent US8618111B2, “5-alkynyl-pyrimidines” (Boehringer Ingelheim International GmbH, priority 2010, dated 2013).

Columns and labels:
PI3Kalpha = PI3Kalpha (Homo sapiens (Human), UniProt P42336); assay: Inhibition of PI3Kalpha-induced PIP-2 phosphorylation (filter-binding assay); type: biochemical; conditions: 33P-ATP
Protocol: Inhibition of PI3Kalpha-Induced PIP-2 Phosphorylation
Method Type: Filter-Binding-Assay
Aliquoted in desired amounts and stored at −80° C. Final assay concentration 25 ng/well.

mTOR = mTOR (Homo sapiens (Human), UniProt P42345); assay: mTOR kinase activity assay (phosphorylation status of mTOR substrate 4E-BP1; TR-FRET); type: biochemical; conditions: GFP-4E-BP1 substrate, 8 μM ATP
mTOR, sequence (P42345 1360-2549): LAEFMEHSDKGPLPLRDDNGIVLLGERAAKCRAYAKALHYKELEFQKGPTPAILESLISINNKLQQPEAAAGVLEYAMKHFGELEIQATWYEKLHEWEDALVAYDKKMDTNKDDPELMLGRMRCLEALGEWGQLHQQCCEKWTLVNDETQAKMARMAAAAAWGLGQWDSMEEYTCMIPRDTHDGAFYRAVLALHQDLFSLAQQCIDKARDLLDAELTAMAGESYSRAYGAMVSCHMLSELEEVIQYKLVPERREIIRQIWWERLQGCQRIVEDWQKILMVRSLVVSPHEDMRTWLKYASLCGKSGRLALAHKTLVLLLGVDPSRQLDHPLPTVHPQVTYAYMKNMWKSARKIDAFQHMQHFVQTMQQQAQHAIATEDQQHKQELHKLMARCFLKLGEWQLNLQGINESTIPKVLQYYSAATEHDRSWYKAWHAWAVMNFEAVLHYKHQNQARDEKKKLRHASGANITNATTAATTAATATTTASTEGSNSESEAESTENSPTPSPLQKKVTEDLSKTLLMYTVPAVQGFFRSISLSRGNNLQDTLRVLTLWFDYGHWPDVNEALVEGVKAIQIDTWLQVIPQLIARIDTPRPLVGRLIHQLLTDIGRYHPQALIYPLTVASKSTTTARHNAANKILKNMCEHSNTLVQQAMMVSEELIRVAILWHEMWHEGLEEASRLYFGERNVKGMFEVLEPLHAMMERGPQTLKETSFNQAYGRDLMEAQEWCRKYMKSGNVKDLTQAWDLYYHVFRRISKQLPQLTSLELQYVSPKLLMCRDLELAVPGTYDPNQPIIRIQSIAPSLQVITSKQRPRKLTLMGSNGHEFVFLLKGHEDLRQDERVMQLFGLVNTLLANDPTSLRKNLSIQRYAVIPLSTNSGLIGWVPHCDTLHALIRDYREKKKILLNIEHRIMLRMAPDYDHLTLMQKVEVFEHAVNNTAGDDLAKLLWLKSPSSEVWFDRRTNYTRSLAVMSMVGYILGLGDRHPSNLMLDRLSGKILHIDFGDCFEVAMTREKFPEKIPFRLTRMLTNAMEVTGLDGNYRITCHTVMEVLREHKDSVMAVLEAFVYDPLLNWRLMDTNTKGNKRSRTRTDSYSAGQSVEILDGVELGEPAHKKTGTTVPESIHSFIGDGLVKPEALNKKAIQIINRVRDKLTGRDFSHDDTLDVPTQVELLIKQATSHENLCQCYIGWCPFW
Protocol: mTOR Kinase Activity Assay
(Phosphorylation Status of mTOR Substrate 4E-BP1; TR-FRET)
The mTOR kinase TR-FRET assay utilizes a physiologically relevant protein substrate for mTOR (4E-BP1, labeled with an acceptor fluorophore (Green Fluorescent Protein) and paired with a corresponding Tb-labeled phospho-specific antibody.
The assay itself is divided into two phases: the reaction phase and the detection phase. In the reaction phase, all components required for the kinase reaction are added to the well, including the labeled protein substrate. The reaction is allowed to incubate for 60 minutes. After the reaction, EDTA is added to stop the kinase reaction, and terbium-labeled antibody is added to bind phosphorylated product. Because the terbium chelate is stable at the EDTA concentrations used to stop a kinase assay, the antibody and EDTA can be pre-mixed prior to addition to minimize pipetting steps. Binding of the terbium labeled antibody to the fluorophore-labeled phosphorylated product brings the terbium and GFP into proximity, resulting in an increase in TR-FRET. In the presence of an inhibitor, formation of phosphorylated product is reduced, and the TR-FRET value is decreased.
• GFP-4E-BP1 substrate; Invitrogen order no. PV4759 • Lanthascreen Tb-anti-p4E-BP1 (pThr46) Antibody Kit; Invitrogen order no. PV4758 • FRAP1 (mTOR) kinase; Invitrogen order no.
400 nM GFP-4E-BP1, 8 μM ATP, ˜150 ng/mL mTOR, 50 mM HEPES pH 7.5, 0.01% Polysorbate 20, 1 mM EGTA, 10 mM MnCl2, and variable amounts of test compounds.
Note: Thaw and keep mTOR, the substrate, ATP, and the antibody on ice prior to making working dilutions. Working dilutions of these components can be kept at room temperature for short periods of time the day of use. • 1. Add 2 ml of 5× Assay Buffer to 8 ml water to prepare 10 ml of 1× Assay Buffer, wherein the concentration of 1× Assay Buffer is 50 mM HEPES pH 7.5, 0.01% Polysorbate 20, 1 mM EGTA, and 10 mM MnCl2. • 2. Prepare Antibody/EDTA Solution by first adding 2.75 μl of Tb-anti p4E-BP1 Antibody to 2397 μl of LanthaScreen™ TR-FRET Dilution Buffer. Then, add 100 μl of 0.5 M EDTA. • 3. […] Then, add 1.6 μl of mTOR (0.45 mg/mL). • 4. Prepare ATP Solution by adding 3.2 μl of 10 mM ATP to 1997 μl of 1× Assay Buffer. Serial Dilution of Inhibitors (16 Point Curve)
Inhibitors are serially diluted in DMSO, then diluted to a 4× working concentration with 1× Assay Buffer. • 1. Dispense 40 μl of DMSO to two adjacent columns of a 96 well plate per compound (e.g. columns 1 and 2). • 2. Add 10 μl of inhibitor stock (10 mM) to the first well of the first column (A1) and mix. • 3. Remove 10 μl from A1 and transfer to the adjacent well in the next column (B1) and mix. • 4. Remove 10 μl from B1 and transfer to the next well in the first column (B2) and mix. • 5. […] Remove 4 μl of diluted compounds and add to 96 μl of 1× Assay Buffer in a 96-well plate making 4× compound dilutions. Kinase Reaction • 1. Add 2.5 μl of 4X compound dilutions to a 384-well plate. • 2. […] Preincubate for […] at RT (shaker). • 5. Add 5 μl of ATP Solution to all wells to start reactions. • 6. Shake the assay plate on a plate shaker for 30 seconds. • 7. Incubate the assay plate for one hour at room temperature (20-25° C.). Stop Step and Fluorescence Detection • 1. Add 10 μl of Antibody/EDTA Solution to each well in columns 1-9. • 2. Shake the assay plate on a plate shaker for 30 seconds. • 3. Incubate the assay plate for one hour at room temperature (20-25° C.). • 4. Measure the GFP (FRET) and terbium (reference) emission signals on a fluorescence plate reader (e.g. Perkin Elmer Envision). Data Analysis • 1. Calculate the emission ratio for each sample by dividing the GFP (FRET) signal by the terbium (reference) signal. • 2.

[1] = test system: PC3 (human prostate carcinoma cell line) cells; assay: PC3 proliferation test; type: cell-based; conditions: PC-3, 72 h, 3 days incubation, DNA dye fluorescence
Protocol: The test is based on measurement of cellular DNA content via fluorescent dye binding. Because cellular DNA content is highly regulated, it is closely proportional to cell number. The extent of proliferation is determined by comparing cell counts for samples treated with drugs with untreated controls.
PC3 (human prostate carcinoma cell line) cells are sown in microtitre plates and incubated overnight in culture medium at 37° C. and 5% CO2. The test substances are diluted stepwise and added to the cells such that the total volume is 200 μL/well. Cells to which diluent, but not substance, is added serve as controls.

PI3Kalpha, sequence (P42336 whole entry, species assumed): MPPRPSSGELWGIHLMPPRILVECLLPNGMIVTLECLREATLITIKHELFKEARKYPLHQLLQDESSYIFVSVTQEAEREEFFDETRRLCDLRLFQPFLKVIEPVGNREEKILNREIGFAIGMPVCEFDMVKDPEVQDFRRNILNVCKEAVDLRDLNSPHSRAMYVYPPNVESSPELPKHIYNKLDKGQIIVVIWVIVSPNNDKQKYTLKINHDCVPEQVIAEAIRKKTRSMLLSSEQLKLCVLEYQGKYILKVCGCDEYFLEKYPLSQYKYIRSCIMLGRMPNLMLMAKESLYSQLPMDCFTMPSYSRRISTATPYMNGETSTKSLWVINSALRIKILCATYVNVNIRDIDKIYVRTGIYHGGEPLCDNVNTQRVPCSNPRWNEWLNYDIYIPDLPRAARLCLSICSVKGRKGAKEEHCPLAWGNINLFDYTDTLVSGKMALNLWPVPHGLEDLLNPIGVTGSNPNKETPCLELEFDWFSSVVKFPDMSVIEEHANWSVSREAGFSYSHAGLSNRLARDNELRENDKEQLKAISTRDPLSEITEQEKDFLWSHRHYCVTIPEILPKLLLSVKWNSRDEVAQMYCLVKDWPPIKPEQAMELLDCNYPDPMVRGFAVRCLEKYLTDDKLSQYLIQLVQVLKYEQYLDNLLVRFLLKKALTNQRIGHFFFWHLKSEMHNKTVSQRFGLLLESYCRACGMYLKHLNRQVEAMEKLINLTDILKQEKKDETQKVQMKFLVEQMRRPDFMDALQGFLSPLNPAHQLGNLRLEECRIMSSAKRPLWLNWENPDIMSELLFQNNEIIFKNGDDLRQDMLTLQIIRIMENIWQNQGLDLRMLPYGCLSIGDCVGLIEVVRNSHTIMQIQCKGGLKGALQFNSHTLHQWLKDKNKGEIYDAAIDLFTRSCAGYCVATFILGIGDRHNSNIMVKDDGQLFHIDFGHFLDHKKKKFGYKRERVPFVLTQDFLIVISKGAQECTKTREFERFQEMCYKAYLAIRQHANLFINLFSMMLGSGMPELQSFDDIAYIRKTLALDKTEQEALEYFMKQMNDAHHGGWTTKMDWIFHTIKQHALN
PI3Kalpha, sequence (P27986 whole entry partner, species assumed): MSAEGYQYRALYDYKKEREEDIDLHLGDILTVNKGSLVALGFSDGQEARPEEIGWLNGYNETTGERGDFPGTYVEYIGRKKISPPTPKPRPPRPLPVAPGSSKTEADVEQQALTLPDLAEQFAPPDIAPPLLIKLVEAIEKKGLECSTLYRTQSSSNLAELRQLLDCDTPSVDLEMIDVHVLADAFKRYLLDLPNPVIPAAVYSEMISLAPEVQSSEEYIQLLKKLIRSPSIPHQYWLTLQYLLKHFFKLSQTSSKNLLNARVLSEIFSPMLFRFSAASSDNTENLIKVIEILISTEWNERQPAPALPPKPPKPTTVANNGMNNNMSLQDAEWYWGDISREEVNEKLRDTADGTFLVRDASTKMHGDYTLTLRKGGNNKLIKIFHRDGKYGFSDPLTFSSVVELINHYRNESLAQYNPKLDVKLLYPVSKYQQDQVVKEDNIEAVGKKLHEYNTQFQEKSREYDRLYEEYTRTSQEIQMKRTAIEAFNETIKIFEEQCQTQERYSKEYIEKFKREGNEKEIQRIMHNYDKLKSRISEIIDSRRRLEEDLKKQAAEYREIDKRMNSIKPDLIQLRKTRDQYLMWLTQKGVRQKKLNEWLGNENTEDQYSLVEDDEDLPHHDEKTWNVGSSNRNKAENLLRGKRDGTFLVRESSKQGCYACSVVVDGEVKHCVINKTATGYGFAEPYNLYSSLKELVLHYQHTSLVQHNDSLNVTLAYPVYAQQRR

Row | SMILES | IC50 PI3Ka (PI3Kalpha) | IC50 (mTOR) | EC50 [1]
1 | CCc1ncnc(N2CCN(C(=O)CC#N)CC2)c1C#Cc1ccc(N)nc1 [Example G-3] | 60 nM | 91 nM | 550 nM
2 | Cc1ncnc(N2CCC(CNC(=O)C3CCCCC3)CC2)c1C#Cc1ccc(N)nc1 [Example F-6] | 51 nM | 78 nM | 277 nM
3 | CCc1ncnc(N2CCC3(CC2)OCCCO3)c1C#Cc1ccc(N)nc1 [Example B-61] | 43 nM | 4 nM | 33 nM
4 | Cc1ncnc(N2CCC(O)(C3CCCCC3)CC2)c1C#Cc1ccc(N)nc1 [Example B-74] | 98 nM | 30 nM | 195 nM
5 | Cc1ncnc(N2CCC(CC(=O)N3CCOCC3)CC2)c1C#Cc1ccc(N)nc1 [Example E-6] | 83 nM | 59 nM | 358 nM
6 | CC(=O)N1CCCN(c2ncnc(C)c2C#Cc2ccc(N)nc2)CC1 [Example B-7] | 348 nM | 94 nM | 722 nM
7 | CC(=O)NC1CCN(c2ncnc(C)c2C#Cc2ccc(N)nc2)CC1 [Example B-25] | 78 nM | 42 nM | 267 nM
8 | Cc1ncnc(N2CCN(C3CC3)CC2)c1C#Cc1ccc(N)nc1 [Example B-5] | 58 nM | 10 nM | 118 nM
9 | Cc1ncnc(N2CCC(CCO)CC2)c1C#Cc1ccc(N)nc1 [Example B-30] | 14 nM | 9 nM | 49 nM
10 | CCc1ncnc(N2CCC(F)(F)CC2)c1C#Cc1ccc(N)nc1 [Example B-42] | 196 nM | 31 nM | 105 nM
11 | CCc1ncnc(N2CCN(C)CC2)c1C#Cc1ccc(N)nc1 [Example B-56] | 1551 nM | 57 nM | 268 nM
12 | CCc1ncnc(N2CCC(O)(C(C)C)CC2)c1C#Cc1ccc(N)nc1 [Example B-63] | 15 nM | 0.61 nM | 8 nM
13 | CCc1ncnc(N2CCC(OC)CC2)c1C#Cc1ccc(N)nc1 [Example B-44] | 58 nM | 10 nM | 76 nM
14 | CCCCCC(=O)NCC1CCN(c2ncnc(C)c2C#Cc2ccc(N)nc2)CC1 [Example F-2] | 23 nM | 31 nM | 344 nM
15 | Cc1ncnc(N2CCOCC2)c1C#Cc1ccc(N)nc1 [Example B-4] | 37 nM | 38 nM | 319 nM
16 | CC(=O)NC1CCCN(c2ncnc(C)c2C#Cc2ccc(N)nc2)C1 (stereo not drawn) [Example B-24] | 158 nM | 46 nM | 352 nM
17 | CCc1ncnc(N2CCC(COC)CC2)c1C#Cc1ccc(N)nc1 [Example B-39] | 87 nM | 19 nM | 50 nM

Row | SMILES | IC50 PI3Ka (PI3Kalpha) | IC50 (mTOR) | EC50 [1]
18 | CCc1ncnc(N2CCC(O)(c3ccccc3)CC2)c1C#Cc1ccc(N)nc1 [Example B-16] | 91 nM | 7 nM | 34 nM
19 | CCc1ncnc(N2CCCC(CO)C2)c1C#Cc1ccc(N)nc1 (stereo not drawn) [Example B-49] | 73 nM | 28 nM | 124 nM
20 | CCc1ncnc(N2CCC(CO)CC2)c1C#Cc1ccc(N)nc1 [Example B-45] | 58 nM | 10 nM | 46 nM
21 | Cc1ncnc(N2CC[S+]([O-])CC2)c1C#Cc1ccc(N)nc1 [Example B-3] | 199 nM | 83 nM | 501 nM
22 | CCc1ncnc(N2CCC3(CCNC3=O)CC2)c1C#Cc1ccc(N)nc1 [Example B-85] | 95 nM | 30 nM | 153 nM
23 | Cc1ccc(C(=O)N2CCN(c3ncnc(C)c3C#Cc3ccc(N)nc3)CC2)o1 [Example G-10] | 25 nM | 60 nM | 221 nM
24 | CCc1ncnc(N2CCC3(CCN(C(C)=O)CC3)CC2)c1C#Cc1ccc(N)nc1 [Example G-11] | 36 nM | 30 nM | 55 nM
25 | CCc1ncnc(N2CCCC(CO)C2)c1C#Cc1ccc(C)nc1 (stereo not drawn) [Example B-71] | 90 nM | 108 nM | 388 nM
26 | CCc1ncnc(N2CCC(O)CC2)c1C#Cc1ccc(NC)nc1 [Example B-87] | 76 nM | 20 nM | 104 nM
27 | CCN(C)C(=O)CC1CCN(c2ncnc(C)c2C#Cc2ccc(N)nc2)CC1 [Example E-7] | 44 nM | 53 nM | 266 nM
28 | CCc1ncnc(N2CCC(C(F)(F)F)CC2)c1C#Cc1ccc(N)nc1 [Example B-41] | 201 nM | 9 nM | 19 nM
29 | Cc1ncnc(N2CCC3(CCNC3=O)CC2)c1C#Cc1ccc(N)nc1 [Example B-84] | 32 nM | 19 nM | 126 nM
30 | Cc1ncnc(N2CCN(C(=O)C3CCC3)CC2)c1C#Cc1ccc(N)nc1 [Example G-8] | 22 nM | 64 nM | 206 nM
31 | CCc1ncnc(N2CCC(C=C(C)C)CC2)c1C#Cc1ccc(N)nc1 [Example B-15] | 622 nM | 64 nM | 202 nM
32 | CCc1ncnc(N2CCC(CO)CC2)c1C#Cc1ccc(C)nc1 [Example B-72] | 134 nM | 70 nM | 474 nM
33 | CCc1ncnc(N2CCC(O)(C(F)(F)F)CC2)c1C#Cc1ccc(C)nc1 [Example B-31] | 172 nM | 37 nM | 80 nM
34 | CCc1ncnc(N2CCN(C(=O)NC)CC2)c1C#Cc1ccc(N)nc1 [Example G-1] | 33 nM | 84 nM | 212 nM
